Experimental data reported in patent US20070213272A1, “Transmucosal Administration Agent Containing Pth” (priority 2004, published 2007).
“And” between values parts separate entries of the source, which are not always exact repeats. Equal values may be shown once.

How the values were obtained:
[1] = tested on: patients with primary osteoporosis; assay: Safety evaluation: adverse events and side effects in transnasal clinical study; assay type: in vivo, human
Experimental: […] Here, hPTH1-34 transnasal administration formulation was produced by the method in Example 2 of International Patent Publication No. WO02/02136. Using a nebulizer VP-7 (Valois) which uniformly sprays 100 μL of the drug solution by pumping once, one pumping for each nasal cavity, the total of 200 μL of the drug solution was sprayed daily. […] A single dose containing each amount of hPTH(1-34) was administered once a day on consecutive days of 12 weeks, and effectiveness and safety of each amount was confirmed. Safety evaluation: the occurrence number of adverse events was counted and evaluated. In counting adverse and other events, coding to preferred terms (PT) and classification of adverse event names into system organ classes (SOC) were conducted based on “MedDRA Version6.1”.

[2] = PTH(1-34) level in plasma after caudal vein and subcutaneous administration (pharmacokinetics); assay type: in vivo, rat
Experimental: Changes of PTH(1-34) level in plasma by caudal vein administration (iv) and subcutaneous administration (sc) were examined. hPTH(1-34) was diluted with phosphate buffer solution (PBS)/0.05% Tween 80 and adjusted to 10 nmol/ml. Female SD-IGS rats at 8 weeks of age (Charles River Japan, Inc.) were used for the experiment. A single dose administration was carried out by caudal vein administration and subcutaneous administration, and blood was collected from tail vein using a capillary tube for blood collection in a time-dependent manner (at pre-administration, 2.5, 5, 7.5, 10, 15, 30, 60, 90, 120 min.). After EDTA plasma was isolated, the collected blood samples were stored at -80° C. until the hPTH(1-34) level was measured. The PTH(1-34) level was measured by ELISA method using PTH(1-34) (human)-EIA kit (Peninsula Laboratories).

patients = settings: subcutaneous administration, Neer et al. 2001; cited from earlier work
[3] = transnasal, all dose groups, 97 subjects for safety evaluation
[4] = rat, iv (caudal vein) single dose, 10 nmol/ml solution, female SD-IGS rats, plasma
[5] = rat, sc single dose, 10 nmol/ml solution, female SD-IGS rats, plasma

## CC[C@H](C)[C@H](NC(=O)[C@H](CCC(=O)O)NC(=O)[C@H](CO)NC(=O)[C@@H](NC(=O)[C@@H](N)CO)C(C)C)C(=O)N[C@@H](CCC(N)=O)C(=O)N[C@@H](CC(C)C)C(=O)N[C@@H](CCSC)C(=O)N[C@@H](Cc1cnc[nH]1)C(=O)N[C@@H](CC(N)=O)C(=O)N[C@@H](CC(C)C)C(=O)NCC(=O)N[C@@H](CCCCN)C(=O)N[C@@H](Cc1cnc[nH]1)C(=O)N[C@@H](CC(C)C)C(=O)N[C@@H](CC(N)=O)C(=O)N[C@@H](CO)C(=O)N[C@@H](CCSC)C(=O)N[C@@H](CCC(=O)O)C(=O)N[C@@H](CCCN=C(N)N)C(=O)N[C@H](C(=O)N[C@@H](CCC(=O)O)C(=O)N[C@@H](Cc1c[nH]c2ccccc12)C(=O)N[C@@H](CC(C)C)C(=O)N[C@@H](CCCN=C(N)N)C(=O)N[C@@H](CCCCN)C(=O)N[C@@H](CCCCN)C(=O)N[C@@H](CC(C)C)C(=O)N[C@@H](CCC(N)=O)C(=O)N[C@@H](CC(=O)O)C(=O)N[C@H](C(=O)N[C@@H](Cc1cnc[nH]1)C(=O)N[C@@H](CC(N)=O)C(=O)N[C@@H](Cc1ccccc1)C(=O)O)C(C)C)C(C)C [hPTH(1-34)]
[1]; transnasal, 250-μg group
  number of adverse events: 46 events
  number of side effect events: 12 events
  subjects with adverse events: 71.0%
  subjects with side effects: 22.6%
[1]; transnasal, 500-μg group
  number of adverse events: 51 events
  number of side effect events: 10 events
  subjects with adverse events: 76.7%
  subjects with side effects: 26.7%
[1]; transnasal, 1,000-μg group
  number of adverse events: 48 events
  number of side effect events: 13 events
  subjects with adverse events: 69.0%
  subjects with side effects: 24.1%
[1]; transnasal, 1,500-μg group
  number of adverse events: 10 events
  number of side effect events: 2 events
  subjects with adverse events: 71.4%
  subjects with side effects: 28.6%
[1]; transnasal, all dose groups
  frequency of leg cramps: no observation and 0%
  frequency of nausea: no observation and 0%
  number of side effect events: 37 events
  occurrence rate of clinical examination (SOC): 19.6%
  occurrence rate of dizziness: 4.1%
  occurrence rate of headache: 7.2%
  occurrence rate of heat failure (SOC): 21.6%
  occurrence rate of infectious disease and parasitic disease (SOC): 18.6%
  occurrence rate of nasopharyngitis (PT): 14.4%
  occurrence rate of supraventricular premature beat (PT): 12.4%
  occurrence rate of ventricular premature beat (PT): 5.2%
  side effect events with the occurrence rate of 5% or more: no event
  subjects with side effects: 24.7%
[1]; [3]
  number of adverse events: 155 events
  subjects with adverse events: 72.2%
[2]; iv versus sc single dose, rats
  PK profile of iv administration compared with sc administration: more pulse-like PK
[2]; [4]
  AUC: 17.8 ng·h/mL
  half-life: 6.9 min
[2]; [5]
  AUC: 3.83 ng·h/mL
  Cmax: 9 ng/mL
  Tmax: 20 min
  half-life: 10.8 min
patients
  frequency of dizziness: 9%
  frequency of headache: 13%
  frequency of leg cramps: 3%
  frequency of nausea: 18%
